Among the data in PubChem BioAssay (NCI) are TGI values, retold here.

SMILES strings stand for the structures.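 Assay format: 96-well plates, 48-hour exposure. TGI denotes the concentration required for complete inhibition of growth.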 Peptide text beside a SMILES is read from it. * marks the point of attachment. OSu = O=C1CCC(=O)N1O*; OBn = c1ccc(CO*)cc1; Bn = c1ccc(C*)cc1 Bounds are passed on as bounds.

Some test systems named below: SF-295 CNS; NCI/ADR-RES ovarian; CAKI-1 renal; NCI-H460 lung; UO-31 renal; NCI-H522 lung; MDA-MB-435; OVCAR-8 ovarian; HL-60(TB) leukemia; KM12 colon.
Common to all, as to assay: NCI-60 cell line screen, 48 h

As to `CC(=O)N1C(OCc2ccccc2)CCN1c1ccccc1` (configuration not stated), the TGI in the assay on SF-295 CNS, with NCI/ADR-RES ovarian, in the assay with CAKI-1 renal, with NCI-H460 lung, with UO-31 renal and with NCI-H522 lung was above 10 µM in each case. Besides, the TGI in the assay on MDA-MB-435, with OVCAR-8 ovarian and in the assay on HL-60(TB) leukemia was above 10 µM each time.

Turning to `C=C(COC(=O)C(C)C)[C@H]1Oc2ccc(C(C)=O)cc2[C@@H]1OC(=O)C(C)C`, the TGI in the assay on KM12 colon, with SF-295 CNS, in the assay with CAKI-1 renal, in the assay on NCI-H460 lung, in the assay with UO-31 renal and with MDA-MB-435 was above 100 µM throughout. The TGI in the assay on OVCAR-8 ovarian and in the assay on HL-60(TB) leukemia was above 100 µM in each case.

Consider `c1ccc(-c2nc3ccccc3n3nnnc23)cc1`, for which the TGI in the assay with KM12 colon is above 100 µM; in the assay with NCI/ADR-RES ovarian, above 100 µM; with NCI-H460 lung it was above 100 µM; in the assay on UO-31 renal, 1.57 µM; in the assay on MDA-MB-435, above 100 µM; in the assay on HL-60(TB) leukemia it was above 100 µM.

In the case of `O=C(c1ccccc1)n1[nH]c(=O)n(-c2ccc(Cl)cc2)c1=O`, the TGI in the assay with KM12 colon, in the assay with SF-295 CNS, with NCI/ADR-RES ovarian, in the assay with CAKI-1 renal, in the assay with NCI-H460 lung and in the assay with UO-31 renal was above 100 µM each time. Also, the TGI with MDA-MB-435, in the assay with OVCAR-8 ovarian and with HL-60(TB) leukemia was above 100 µM in each case.

In the case of `COc1cc(C2C3=C(N=C4SC(C(C)=O)=C(C)N42)c2ccccc2CC3)cc(OC)c1OC` (configuration not stated), the TGI in the assay with KM12 colon, with SF-295 CNS, with NCI/ADR-RES ovarian, in the assay on UO-31 renal, in the assay with MDA-MB-435 and in the assay on OVCAR-8 ovarian was above 100 µM in each case. The compound further registered a TGI with HL-60(TB) leukemia of 81.4 µM.

As for `CC(C)CC(NC(=O)C(N)CCC(=O)OCc1ccccc1)C(=O)NC(COCc1ccccc1)C(=O)NC(Cc1ccccc1)C(=O)ON1C(=O)CCC1=O` (configuration not stated) (H-E(OBn)LS(Bn)F-OSu; configuration not given here), the TGI with KM12 colon was above 100 µM; in the assay with SF-295 CNS it was 62.7 µM; with NCI/ADR-RES ovarian, 85.3 µM; with CAKI-1 renal, 64 µM; in the assay on NCI-H460 lung, 71.8 µM; in the assay with UO-31 renal it was 59 µM. Moreover, the TGI was 47.8 µM in the assay on NCI-H522 lung, above 100 µM with MDA-MB-435 and above 100 µM in the assay with OVCAR-8 ovarian.

`O=c1c(S(=O)(=O)Oc2ccccc2)coc2cc(F)ccc12`: the TGI in the assay on KM12 colon, in the assay on SF-295 CNS, with NCI/ADR-RES ovarian, in the assay with CAKI-1 renal, in the assay with NCI-H460 lung and with UO-31 renal was above 100 µM throughout. For the same compound, the TGI in the assay with NCI-H522 lung, in the assay on MDA-MB-435 and with OVCAR-8 ovarian was above 100 µM throughout.

As to `COc1cc([C@@H]2c3cc4c(cc3[C@@H](Nc3ccc(NC(=O)c5cc(NC(=O)c6cc([N+](=O)[O-])cn6C)cn5C)cc3)[C@H]3COC(=O)[C@H]23)OCO4)cc(OC)c1O`, the TGI in the assay with KM12 colon was 61.8 µM; with SF-295 CNS, above 100 µM; in the assay with NCI/ADR-RES ovarian it was above 100 µM; in the assay with CAKI-1 renal, above 28.5 µM; in the assay on NCI-H460 lung, 13.2 µM; with UO-31 renal it was above 53 µM. In addition, the TGI in the assay with NCI-H522 lung was above 100 µM; in the assay with OVCAR-8 ovarian, 89.8 µM; in the assay with HL-60(TB) leukemia, 11.3 µM.

`Cc1nn(-c2ccccc2)c2c1N=C(C(=O)O)CC(c1ccccc1)=N2`: the TGI in the assay with KM12 colon, with SF-295 CNS, in the assay with NCI/ADR-RES ovarian, in the assay with CAKI-1 renal, in the assay with NCI-H522 lung and in the assay on MDA-MB-435 was above 10 µM throughout. In addition, the TGI in the assay with OVCAR-8 ovarian and with HL-60(TB) leukemia was above 10 µM in each case.

`O=C(NC(CO)CO)c1ccc2cc(C(=O)N3CC(CCl)c4ccc([N+](=O)[O-])cc43)[nH]c2c1` (configuration not stated): the TGI in the assay on KM12 colon, in the assay with SF-295 CNS, with NCI/ADR-RES ovarian, in the assay with CAKI-1 renal, in the assay on NCI-H460 lung and in the assay on UO-31 renal was above 100 µM throughout. Further, the TGI in the assay on MDA-MB-435, in the assay with OVCAR-8 ovarian and with HL-60(TB) leukemia was above 100 µM each time.

For `O=[N+]([O-])c1cc(Cl)ccc1S(=O)(=O)c1cc(Cl)cc2c1NCCC2`, the TGI with KM12 colon, in the assay with SF-295 CNS, with NCI/ADR-RES ovarian, in the assay on CAKI-1 renal, in the assay on NCI-H460 lung and with UO-31 renal was above 100 µM in each case. In addition, the TGI with MDA-MB-435, in the assay with OVCAR-8 ovarian and in the assay on HL-60(TB) leukemia was above 100 µM in each case.

With `CCOC(=O)/C=C1/Nc2cc(F)c(F)cc2NC1=O`, the TGI in the assay on KM12 colon, with SF-295 CNS, in the assay with NCI/ADR-RES ovarian, in the assay with CAKI-1 renal, in the assay on NCI-H460 lung and in the assay with UO-31 renal was above 100 µM in each case. For the same compound, the TGI with MDA-MB-435, in the assay on OVCAR-8 ovarian and with HL-60(TB) leukemia was above 100 µM in each case.

As for `O=C1C=C(NCCc2cc(Br)c(O)c(Br)c2)C(=O)c2[nH]cnc21`, the TGI in the assay on KM12 colon, in the assay with SF-295 CNS, in the assay with NCI/ADR-RES ovarian, with CAKI-1 renal, in the assay with NCI-H460 lung and in the assay on UO-31 renal was above 100 µM each time. Besides, the values for the TGI in the assay with NCI-H522 lung, in the assay with MDA-MB-435 and with OVCAR-8 ovarian were 87.4 µM, 29.3 µM and above 100 µM, respectively.

As to `CCc1cc2c(oc3c4ccccc4ccc23)c(=O)[nH]1`, the TGI in the assay on KM12 colon, in the assay on SF-295 CNS, in the assay on NCI-H460 lung, in the assay with UO-31 renal, in the assay on NCI-H522 lung and with MDA-MB-435 was above 10 µM throughout. Besides, the TGI with OVCAR-8 ovarian and with HL-60(TB) leukemia was above 10 µM in each case.

For `O=Cc1cc(O)c(O)c(/C=N/n2c3ccccc3c3ccccc32)c1`, the TGI turned out to be 84.3 µM in the assay on KM12 colon; 27.7 µM with SF-295 CNS; 36.6 µM in the assay with CAKI-1 renal; 36.7 µM in the assay with NCI-H460 lung; 26.1 µM in the assay on UO-31 renal; 7.03 µM with NCI-H522 lung. The TGI with MDA-MB-435 worked out at 28.3 µM; in the assay on OVCAR-8 ovarian it was 18.7 µM; with HL-60(TB) leukemia, 6.32 µM.
